In patent US7105173B1, “Nicotine replacement applique” (priority 2002, dated 2006):

What was measured:
[1] = cited from earlier work

SMILES: CN1CCCC1c1cccnc1 (centres unmarked) [nicotine]
- LD50 oral level expressed as total amount for a small infant: about 250 mg
- LD50 oral level [1]: approximately 55 milligrams per Kilogram of body weight
